Reference: patent US11484557B2, “Human-derived Lactobacillus fermentum MG4231 or Lactobacillus fermentum MG4244 strain having anti-obesity activity, and composition comprising same” (MEDIOGEN CO., LTD., priority 2018, dated 2022)

System: 3T3-L1 preadipocytes
Assay: Inhibition of preadipocyte differentiation, Oil Red O lipid accumulation
Assay type: cell-based
Conditions: positive control, 100 μM baicalin
Method: In order to select a strain having excellent obesity prevention and treatment effects among the strains obtained in the Example 1, an experiment was conducted to identify the ability thereof to inhibit differentiation of preadipocytes into adipocytes. To induce the differentiation of 3T3-L1 preadipocytes, the preadipocytes were dispensed into each 96-well plate at 1.25×10^5 cells/well. After 2 days, the medium was changed so that the cells were completely fused on the 4th day. MDI (0.5 mM 3-isobutyl-1-methylxanthine), 1 μM dexamethasone and 1 μg/mL of insulin solution added to 10% FBS DMEM medium. Subsequently, in the experimental group, the culture supernatant of the strain obtained in Example 1 was added to the medium at a concentration of 1,000 μg/mL. […] Adipocyte differentiation was completed after 6 days, and the amount of lipid accumulated in the cell was measured using Oil Red 0 (Sigma, USA), which reacts specifically with the lipid drop generated in the cell. […] For quantification, distilled water was removed, isopropyl alcohol was added to a completely dry well, and then, absorbance was measured at 520 nm. Then, a degree of inhibition of adipocyte differentiation ability was analyzed by comparing the produced lipid drop content with that of the MDI treatment group based on the measured absorbance.

Q: With `O=C(O)[C@H]1O[C@@H](Oc2cc3oc(-c4ccccc4)cc(=O)c3c(O)c2O)[C@H](O)[C@@H](O)[C@@H]1O` [baicalin] as the compound, how does the relative lipid content read?
A: The relative lipid content was 81.40%.
